Experimental data from patent publication EP2842558A1, “CGRP RESP[…]” (Kao Corporation, priority 2012, dated 2013).

Test system: Normal human coronary artery smooth muscle cells (HCASMC)
Experiment: Measurement of responsiveness to CGRP (intracellular cAMP EIA after 0.5 nM CGRP stimulation)
Assay type: cell-based
Conditions: lignan at predetermined concentrations during 60 min PDI infiltration and 15 min 0.5 nM CGRP stimulation, control = 0.5 nM CGRP only (100% = 1189.3 fmol/well), Dunnett's test, N = 3, Fig. 1
Experimental: Normal human coronary artery smooth muscle cells (HCASMC; Kurabo Industries, Ltd., cell lot #01272) were cultured in a growth medium (product obtained by adding 25 ml of FBS, 0.5 ml of hEGF, 0.5 ml of hFGF-B, 0.5 ml of insulin and 0.5 ml of an antibacterial agent to 500 ml of basal medium HuMedia-SB2; Kurabo Industries, Ltd). 0.025% Trypsin/0.01% EDTA was used for the passage. […]
The cells were washed twice with a basal medium (HuMedia-SB2; Kurabo Industries, Ltd.) containing phosphodiesterase inhibitors (PDI), IBMX (3-isobutyl-1-methylxanthine, 500 µM, Sigma-Aldrich Co.), Ro-20-1724 (100 µM; Wako Pure Chemical Industries, Ltd.), and a lignan compound shown below at a predetermined concentration. […] Termination of the reaction was carried out by adding a lysis buffer attached to a cAMP analysis EIA kit (cAMP EIA (non-acetylation); GE Healthcare Biosciences Corp.) to the cells, and the intracellular cAMP concentration ([cAMP]i) was measured according to the method described in the manual. […]
HCASMC (Kurabo Industries, Ltd., cell lot #01272) was prepared under the same conditions as those used in Example 1. […] Thereafter, the cellular responsiveness to CGRP was measured by the same method as that used in Example 1.

Row | SMILES | cellular responsiveness to CGRP (Improve Index, percentage of [cAMP]i)
1 | COc1cc([C@@H]2c3cc4c(c(OC)c3C[C@H]3COC(=O)[C@@H]32)OCO4)cc(OC)c1OC [TD-1] | significantly promoted the cellular responsiveness to CGRP in a concentration-dependent manner
2 | COc1cc([C@@H]2c3cc4c(cc3C[C@H]3COC(=O)[C@@H]32)OCO4)cc(OC)c1OC [TD-2] | significantly promoted the cellular responsiveness to CGRP in a concentration-dependent manner
